Assay results taken from paper PMC3629977 (Journal of nuclear medicine : official publication, Society …, 2010).
Bridge positions count the residues as written; N and C are the ends. Square brackets hold non-standard residues; d marks the D form. Peptide text beside a SMILES is read from it. * marks the point of attachment. 2Nal = N[C@@H](Cc1ccc2ccccc2c1)C(=O)O; Benzoyl(4-F) = O=C(c1ccc(F)cc1)*; Cit = NC(=O)NCCC[C@H](N)C(=O)O

Columns and labels:
[1] = system: stem cells from the bone marrow; conditions: compared with AMD3100/plerixafor; cited from earlier work
CXCR4 = conditions: cited from earlier work
red blood cells = conditions: mouse, in vivo
CHO-CXCR4 tumors [2] = conditions: 4-^18F-T140 alone, mice bearing CHO and CHO-CXCR4 tumors; Fig. 5A: 2 h after injection, 50 μCi
CHO-CXCR4 tumors [3] = conditions: in vivo
[4] = female, athymic nude, mouse, iv, 3 h

tumor-to-blood ratio (CHO-CXCR4) (CHO-CXCR4 tumors [3]; [4]) | tumor-to-muscle ratio (CHO-CXCR4) (CHO-CXCR4 tumors [3]; [4]) | difference of uptake between CHO-CXCR4 and CXCR4-negative CHO tumors (CHO-CXCR4 tumors [3]) | SMILES | in vivo mobilization of stem cells from the bone marrow [1] | CXCR4 antagonist selectivity (CXCR4) | binding to red blood cells (red blood cells) | PET visualization of tumors (CHO-CXCR4 tumors [2])
– | – | – | N=C(N)NCCC[C@H](NC(=O)[C@@H]1CSSC[C@H](NC(=O)[C@H](Cc2ccc3ccccc3c2)NC(=O)[C@H](CCCNC(=N)N)NC(=O)[C@H](CCCNC(=N)N)NC(=O)c2ccc(F)cc2)C(=O)N[C@@H](Cc2ccc(O)cc2)C(=O)N[C@@H](CCCNC(N)=O)C(=O)N[C@@H](CCCCN)C(=O)N[C@H](CCCCN)C(=O)N2CCC[C@H]2C(=O)N[C@@H](Cc2ccc(O)cc2)C(=O)N[C@@H](CCCNC(=N)N)C(=O)N[C@@H](CCCNC(N)=O)C(=O)N1)C(N)=O [4-F-T140, 4-F-benzoyl-TN14003] ({Benzoyl(4-F)}-RR[2Nal]CY[Cit]K[dK]PYR[Cit]CR-NH2; disulfide 4-13) | increased in vivo mobilization of stem cells from the bone marrow | highly selective CXCR4 antagonist | – | –
0.19 ± 0.04 | 2.94 ± 0.16 | not statistically significant | N=C(N)NCCC[C@H](NC(=O)[C@@H]1CSSC[C@H](NC(=O)[C@H](Cc2ccc3ccccc3c2)NC(=O)[C@H](CCCNC(=N)N)NC(=O)[C@H](CCCNC(=N)N)NC(=O)c2ccc(F)cc2)C(=O)N[C@@H](Cc2ccc(O)cc2)C(=O)N[C@@H](CCCNC(N)=O)C(=O)N[C@@H](CCCCN)C(=O)N[C@H](CCCCN)C(=O)N2CCC[C@H]2C(=O)N[C@@H](Cc2ccc(O)cc2)C(=O)N[C@@H](CCCNC(=N)N)C(=O)N[C@@H](CCCNC(N)=O)C(=O)N1)C(N)=O [4-^18F-T140, 4-^18F-benzoyl-TN14003] ({Benzoyl(4-F)}-RR[2Nal]CY[Cit]K[dK]PYR[Cit]CR-NH2; disulfide 4-13) | – | – | bind specifically to red blood cells in vitro and in vivo | clearly showed both tumors
